The solubility is the dissolved amount per volume that the medium holds.

The nature of data set [1]: Activation of sGC heme complex expressed in Sf9 cells at 150 uM relative to control. The following applies: Homo sapiens.
Data set [2] is described as follows: Activation of sGC heme complex expressed in Sf9 cells at 150 uM in presence of nitric oxide relative to control. The following applies: Homo sapiens.
Data set [3] in a line: Activation of sGC heme complex expressed in Sf9 cells at 150 uM in presence of carbon monoxide relative to control. The following applies: Homo sapiens.
Data set [4] in a line: Activation of sGC heme complex expressed in Sf9 cells at 800 uM in presence of carbon monoxide relative to control. The following applies: Homo sapiens.
Data set [5] is described as follows: Activation of sGC heme complex expressed in Sf9 cells at 800 uM in presence of nitric oxide relative to control. The following applies: Homo sapiens.
A short description of data set [6]: Aqueous solubility of the compound. It is filed as physicochemical.
Data set [7] is described as follows: Activation of sGC heme complex expressed in Sf9 cells at 800 uM relative to control. The following applies: Homo sapiens.

Some results are limits rather than exact numbers.

Turning to `OCc1ccc(-c2nn(Cc3ccccc3)c3ccccc23)o1`, the results for the Activity in data set [1], in data set [2] and in data set [3] were 6.4, 270 and 87, respectively.
Take `O=P(O)(O)Cc1ccc(-c2nn(Cc3ccccc3)c3ccccc23)o1`: the Activity in data set [4] is 1.2; in data set [1], 5.2; in data set [2], 38; in data set [5] it was 10; in data set [3], 16; in data set [7], 1.4. In data set [6], this compound showed a solubility of over 800 µM.

For the origin of these results see ChEMBL document CHEMBL1140670, “Synthesis and evaluation of a phosphonate analogue of the soluble guanylate cyclase activator YC-1” (Bioorg Med Chem Lett, 2007).
